Test results: US20140228366A1, “HETEROARYL-SUBSTITUTED PYRAZOLOPYRIDINES AND USE THEREOF AS SOLUBLE GUANYLATE CYCLASE STIMULATORS” (BAYER INTELLECTUAL PROPERTY GMBH, priority 2011, published 2014)

Experiments:
rabbit aorta rings = test: Vasorelaxant effect in vitro (phenylephrine-contracted aorta rings); settings: Oryctolagus cuniculus, phenylephrine contraction, concentration reducing control contraction by 50%
Method: Rabbits are stunned by a blow to the neck and exsanguinated. The aorta is removed, freed from adhering tissue and divided into rings of a width of 1.5 mm. The rings are placed individually under an initial tension in 5 ml organ baths with Krebs-Henseleit solution which is at 37° C., is gassed with carbogen and has the following composition (in each case mM): sodium chloride: 119; potassium chloride: 4.8; calcium chloride dihydrate: 1; magnesium sulphate heptahydrate: 1.4; potassium dihydrogenphosphate: 1.2; sodium bicarbonate: 25; glucose: 10. The contractile force is determined with Statham UC2 cells, amplified and digitalized using A/D transducers (DAS-1802 HC, Keithley Instruments Munich), and recorded in parallel on linear recorders. To produce a contraction, phenylephrine is added to the bath cumulatively in increasing concentration. After several control cycles, the substance to be investigated is added in each further run in increasing dosage in each case, and the height of the contraction achieved is compared with the height of the contraction reached in the last preceding run. This is used to calculate the concentration needed to reduce the magnitude of the control value by 50% (IC50 value). The standard administration volume is 5 μl; the DMSO content in the bath solution corresponds to 0.1%.

[1] = biological target: T1, recombinant guanylate cyclase reporter cell line (Rattus norvegicus, UniProt P19686+P20595); test: Effect on a recombinant guanylate cyclase reporter cell line; format: cell-based
T1 construct: expressed in transfected cells; host or cells: recombinant reporter cell line
T1 sequence (P19686 1-690): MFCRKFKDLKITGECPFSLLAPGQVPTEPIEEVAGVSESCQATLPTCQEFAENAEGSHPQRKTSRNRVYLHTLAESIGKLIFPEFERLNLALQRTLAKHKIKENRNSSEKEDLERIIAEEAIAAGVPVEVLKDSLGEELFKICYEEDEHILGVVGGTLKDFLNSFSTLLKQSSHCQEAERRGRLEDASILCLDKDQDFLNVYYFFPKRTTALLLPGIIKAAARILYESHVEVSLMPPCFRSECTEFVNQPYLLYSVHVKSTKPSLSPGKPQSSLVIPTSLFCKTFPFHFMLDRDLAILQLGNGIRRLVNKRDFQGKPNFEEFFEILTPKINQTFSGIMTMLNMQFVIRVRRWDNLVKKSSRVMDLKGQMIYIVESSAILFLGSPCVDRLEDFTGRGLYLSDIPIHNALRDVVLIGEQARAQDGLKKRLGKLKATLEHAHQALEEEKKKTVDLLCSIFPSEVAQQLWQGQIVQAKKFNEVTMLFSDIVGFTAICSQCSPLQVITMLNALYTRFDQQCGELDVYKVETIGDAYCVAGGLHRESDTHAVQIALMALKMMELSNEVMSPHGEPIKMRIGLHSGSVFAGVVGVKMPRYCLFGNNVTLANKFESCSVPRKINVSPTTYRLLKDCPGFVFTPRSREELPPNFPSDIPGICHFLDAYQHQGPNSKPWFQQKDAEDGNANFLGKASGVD
T1 sequence (P20595 1-619): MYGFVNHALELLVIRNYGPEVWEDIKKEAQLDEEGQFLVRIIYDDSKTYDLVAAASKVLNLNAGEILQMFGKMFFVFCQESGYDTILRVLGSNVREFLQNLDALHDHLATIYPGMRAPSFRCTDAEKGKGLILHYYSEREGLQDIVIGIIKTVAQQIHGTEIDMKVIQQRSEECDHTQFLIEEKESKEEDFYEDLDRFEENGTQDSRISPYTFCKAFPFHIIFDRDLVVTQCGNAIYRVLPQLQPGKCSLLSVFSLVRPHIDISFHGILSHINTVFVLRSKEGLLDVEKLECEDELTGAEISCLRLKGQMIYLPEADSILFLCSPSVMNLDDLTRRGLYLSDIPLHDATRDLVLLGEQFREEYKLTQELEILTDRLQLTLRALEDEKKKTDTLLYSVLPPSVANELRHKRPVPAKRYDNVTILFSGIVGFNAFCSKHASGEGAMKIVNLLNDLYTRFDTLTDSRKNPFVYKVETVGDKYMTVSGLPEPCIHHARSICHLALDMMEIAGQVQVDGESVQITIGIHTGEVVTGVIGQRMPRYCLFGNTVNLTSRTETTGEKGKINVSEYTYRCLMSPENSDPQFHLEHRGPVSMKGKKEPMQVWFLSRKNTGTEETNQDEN
Method: The cellular activity of the compounds according to the invention is determined using a recombinant guanylate cyclase reporter cell line, as described in F. Wunder et al., Anal. Biochem. 339, 104-112 (2005).

IC50 (rabbit aorta rings) [µM] | MEC (minimum effective concentration) [1] [µM] | SMILES
1.32 | 10 | CC1(C)C(=O)Nc2nc(-c3nn(Cc4ncccn4)c4ncc(F)cc34)nnc21 [Example 1, 3-[5-Fluoro-1-(pyrimidin-2-ylmethyl)-1H-pyrazolo[3,4-b]pyridin-3-yl]-7,7-dimethyl-5,7-dihydro-6H-pyrrolo[2,3-e][1,2,4]triazin-6-one]
 | 0.3 | CC1(C)C(=O)Nc2nc(-c3nn(Cc4ncccc4F)c4ncc(F)cc34)nc(I)c21 [Example 4, 2-{5-Fluoro-1-[(3-fluoropyridin-2-yl)methyl]-1H-pyrazolo[3,4-b]pyridin-3-yl}-4-iodo-5,5-dimethyl-5,7-dihydro-6H-pyrrolo[2,3-d]pyrimidin-6-one]
0.627 | 3 | CC1(C)C(=O)Nc2nc(-c3nn(Cc4ncccc4F)c4ncc(F)cc34)nc(O)c21 [Example 5, 2-{5-Fluoro-1-[(3-fluoropyridin-2-yl)methyl]-1H-pyrazolo[3,4-b]pyridin-3-yl}-4-hydroxy-5,5-dimethyl-5,7-dihydro-6H-pyrrolo[2,3-d]pyrimidin-6-one]
0.116 | 0.3 | CC1(C)C(=O)Nc2nc(-c3nn(Cc4c(F)cncc4F)c4ncc(F)cc34)nc(N)c21 [Example 7, 4-Amino-2-{1-[(3,5-difluoropyridin-4-yl)methyl]-5-fluoro-1H-pyrazolo[3,4-b]pyridin-3-yl}-5,5-dimethyl-5,7-dihydro-6H-pyrrolo[2,3-d]pyrimidin-6-one]
 | 3.0 | CC1(C)C(=O)Nc2nc(-c3nn(Cc4c(F)cncc4F)c4ncc(F)cc34)nc(O)c21 [Example 9, 2-{1-[(3,5-Difluoropyridin-4-yl)methyl]-5-fluoro-1H-pyrazolo[3,4-b]pyridin-3-yl}-4-hydroxy-5,5-dimethyl-5,7-dihydro-6H-pyrrolo[2,3-d]pyrimidin-6-one]
0.259 | 1.0 | CC1(C)C(=O)Nc2nc(-c3nn(Cc4c(F)cncc4F)c4ncc(F)cc34)ncc21 [Example 10, 2-[1-[(3,5-Difluoropyridin-4-yl)methyl]-5-fluoro-1H-pyrazolo[3,4-b]pyridin-3-yl]-5,5-dimethyl-5,7-dihydro-6H-pyrrolo[2,3-d]pyrimidin-6-one]
2.54 | 3.0 | CC1(C)C(=O)Nc2nc(-c3nn(Cc4c(F)cncc4F)c4ncc(F)cc34)nnc21 [Example 11, 3-{1-[(3,5-Difluoropyridin-4-yl)methyl]-5-fluoro-1H-pyrazolo[3,4-b]pyridin-3-yl}-7,7-dimethyl-5,7-dihydro-6H-pyrrolo[2,3-e][1,2,4]triazin-6-one]
0.121 | 1.0 | CC1(C)C(=O)Nc2nc(-c3nn(Cc4ccncc4F)c4ncc(F)cc34)nc(N)c21 [Example 12, 4-Amino-2-[5-fluoro-1-[(3-fluoropyridin-4-yl)methyl]-1H-pyrazolo[3,4-b]pyridin-3-yl]-5,5-dimethyl-5,7-dihydro-6H-pyrrolo[2,3-d]pyrimidin-6-one]
0.207 | 1.0 | CC1(C)C(=O)Nc2nc(-c3nn(Cc4ccncc4F)c4ncc(F)cc34)ncc21 [Example 14, 2-{5-Fluoro-1-[(3-fluoropyridin-4-yl)methyl]-1H-pyrazolo[3,4-b]pyridin-3-yl}-5,5-dimethyl-5,7-dihydro-6H-pyrrolo[2,3-d]pyrimidin-6-one]
 | 1.0 | CC1(C)C(=O)Nc2nc(-c3nn(Cc4ncc(F)cc4F)c4ncc(F)cc34)nnc21 [Example 16, 3-{1-[(3,5-Difluoropyridin-2-yl)methyl]-5-fluoro-1H-pyrazolo[3,4-b]pyridin-3-yl}-7,7-dimethyl-5,7-dihydro-6H-pyrrolo[2,3-e][1,2,4]triazin-6-one]
 | 0.01 | CC1(C)C(=O)Nc2nc(-c3nn(Cc4sccc4F)c4ncc(F)cc34)nnc21 [Example 20, 3-{5-Fluoro-1-[(3-fluoro-2-thienyl)methyl]-1H-pyrazolo[3,4-b]pyridin-3-yl}-7,7-dimethyl-5,7-dihydro-6H-pyrrolo[2,3-e][1,2,4]triazin-6-one]
